Data set [1] in a line: Solid-state stability on storage (degradation; physical changes by XRPD). The data set is classed as physicochemical. The conditions noted are these: 40° C./75% RH open vessel, and 50° C./Ambient closed vessel.
The nature of data set [2]: Photolysis at 1×ICH solid state. The data set is classed as physicochemical.

Bounds are passed on as bounds.

Turning to `CC(=O)N1CCC(Nc2cc(C(=O)NC[C@H](O)CN3CCc4ccccc4C3)ncn2)CC1.O=C(O)CCC(=O)O` [Compound B, succinate salt of (S)-6-((1-acetylpiperidin-4-yl)amino)-N-(3-(3,4-dihydroisoquinolin-2(1H)-yl)-2-hydroxypropyl)pyrimidine-4-carboxamide], in data set [1] (after 4 weeks at 25° C./60% RH open vessel), the degradation is given as at most 0.4%. Also, in data set [1] (after 6 weeks at 25° C./60% RH open vessel), the “physical changes by XRPD analysis” value is reported as “No physical changes detected”. Also, in data set [2], the degradation by photolysis entry was “Approximately 1.4%” and the “form change by XRPD after photolysis” value was “no form change observed”.

Consider `CC(=O)N1CCC(Nc2cc(C(=O)NC[C@H](O)CN3CCc4ccccc4C3)ncn2)CC1.O=C(O)c1ccccc1` [Compound C, benzoate salt of (S)-6-((1-acetylpiperidin-4-yl)amino)-N-(3-(3,4-dihydroisoquinolin-2(1H)-yl)-2-hydroxypropyl)pyrimidine-4-carboxamide], for which the “physical changes by XRPD analysis” value in data set [1] (after 2 weeks at 25° C./60% RH open vessel) is recorded as “No physical changes detected”. Further, in data set [2], the degradation by photolysis result is “Approximately 1.6%” and the “form change by XRPD after photolysis” value is given as “no form change observed”.
